Read-outs that look alike come from different tables or passages of the source.
What was measured:
Assay type in all cases: in vivo
Anthonomus grandis = assay: Boll weevil (Anthonomus grandis) egg/larval test on insect diet in 96-well microtiter plates; settings: 120 h, read-out: mortality in comparison with untreated controls
Procedure: B.3 Boll Weevil (Anthonomus grandis)
For evaluating control of boll weevil (Anthonomus grandis), the test unit consisted of 96-well-microtiter plates containing an insect diet and 5-10 A. grandis eggs.
The compounds were formulated using a solution containing 75% v/v water and 25% v/v DMSO. Different concentrations of formulated compounds were sprayed onto the insect diet at 5 μl, using a custom-built micro atomizer, at two replications.
After application, microtiter plates were incubated at about 25±1° C. and about 75±5% relative humidity for 5 days. Egg and larval mortality was then visually assessed.

Myzus persicae = assay: Green peach aphid (Myzus persicae) systemic test, artificial diet in 96-well microtiter plates; settings: 72 h, read-out: mortality in comparison with untreated controls
Procedure: If not otherwise specified, the test solutions were prepared as follow:
The active compound was dissolved at the desired concentration in a mixture of 1:1 (vol:vol) distilled water:acetone. The test solution was prepared on the day of use.
B.1 Green Peach Aphid (Myzus persicae)
For evaluating control of green peach aphid (Myzus persicae) through systemic means, the test unit consisted of 96-well-microtiter plates containing liquid artificial diet under an artificial mem brane.
The compounds were formulated using a solution containing 75% v/v water and 25% v/v DMSO. Different concentrations of formulated compounds were pipetted into the aphid diet, using a custom built pipetter, at two replications.
After application, 5-8 adult aphids were placed on the artificial membrane inside the microtiter plate wells. The aphids were then allowed to suck on the treated aphid diet and incubated at about 23±1° C. and about 50±5% relative humidity for 3 days. Aphid mortality and fecundity was then visually assessed.

Aedes aegypti = assay: whole plant or invertebrate; settings: 48 h, larval mortality, 2 days, read-out: mortality in comparison with untreated controls
Procedure: B.5 Yellow Fever Mosquito (Aedes aegypti)
For evaluating control of yellow fever mosquito (Aedes aegypti) the test unit consisted of 96-well-microtiter plates containing 200 μl of tap water per well and 5-15 freshly hatched A. aegypti larvae.
The active compounds were formulated using a solution containing 75% (v/v) water and 25% (v/v) DMSO. Different concentrations of formulated compounds or mixtures were sprayed onto the insect diet at 2.5 μl, using a custom-built micro atomizer, at two replications.
After application, microtiter plates were incubated at 28±1° C., 80±5% RH for 2 days. Larval mortality was then visually assessed.

Heliothis virescens = assay: Tobacco budworm (Heliothis virescens) egg/larval test on insect diet in 96-well microtiter plates; settings: 120 h, read-out: mortality in comparison with untreated controls
Procedure: B.2 Tobacco Budworm (Heliothis virescens)
For evaluating control of tobacco budworm (Heliothis virescens), the test unit consisted of 96-well-microtiter plates containing an insect diet and 15-25 H. virescens eggs.
The compounds were formulated using a solution containing 75% v/v water and 25% v/v DMSO. Different concentrations of formulated compounds were sprayed onto the insect diet at 10 μl, using a custom-built micro atomizer, at two replications.
After application, microtiter plates were incubated at about 28±1° C. and about 80±5% relative humidity for 5 days. Egg and larval mortality was then visually assessed.

Spodoptera eridania = assay: Southern armyworm (Spodoptera eridania), 2nd instar larvae, foliar spray on lima bean plants; settings: 96 h, 2nd instar larvae on sprayed lima bean, 4 days after treatment, read-out: mortality in comparison with untreated controls
Procedure: B.4. Southern Armyworm (Spodoptera eridania), 2nd Instar Larvae
The active compounds were formulated by a Tecan liquid handler in 100% cyclohexanone as a 10,000-ppm solution supplied in tubes. The 10,000-ppm solution was serially diluted in 100% cyclohexanone to make interim solutions. These served as stock solutions for which final dilutions were made by the Tecan in 50% acetone:50% water (v/v) into 10 or 20 ml glass vials. A non-ionic surfactant (Kinetic®) was included in the solution at a volume of 0.01% (v/v). The vials were then inserted into an automated electrostatic sprayer equipped with an atomizing nozzle for application to plants/insects. Lima bean plants (variety Sieva) were grown 2 plants to a pot and selected for treatment at the 1st true leaf stage. Test solutions were sprayed onto the foliage by an auto-mated electrostatic plant sprayer equipped with an atomizing spray nozzle. The plants were dried in the sprayer fume hood and then removed from the sprayer. Each pot was placed into perforated plastic bags with a zip closure. Ten to 11 armyworm larvae were placed into the bag and the bags zipped closed. Test plants were maintained in a growth room at about 25° C. and about 20-40% relative humidity for 4 days, avoiding direct exposure to fluorescent light (14:10 light:dark photoperiod) to prevent trapping of heat inside the bags. Mortality and reduced feeding were assessed 4 days after treatment, compared to untreated control plants.

[1] = 2500 ppm, egg and larval mortality, 5 days
[2] = 2500 ppm, adult aphids on treated artificial diet, 3 days

CC(NC(=O)c1cc(C(F)(F)F)cc(C(F)(F)F)c1)c1nccnc1C(N)=NO (stereo not shown) [I-3, N-[1-[3-[N′-hydroxycarbamimidoyl]pyrazin-2-yl]ethyl]-3,5-bis(trifluoromethyl)benzamide]
≥ 75%: mortality at 2500 ppm (Anthonomus grandis; [1]) | mortality at 2500 ppm (Myzus persicae; [2]) | mortality at 2500 ppm (Aedes aegypti) | mortality at 2500 ppm (Heliothis virescens; [1])

CON=C(N)c1nccnc1C(C)NC(=O)c1cc(C(F)(F)F)cc(C(F)(F)F)c1 (stereo not shown) [I-5, N-[1-[3-[N′-methoxycarbamimidoyl]pyrazin-2-yl]ethyl]-3,5-bis(trifluoromethyl)benzamide]
≥ 75%: mortality at 2500 ppm (Anthonomus grandis; [1]) | mortality at 2500 ppm (Myzus persicae; [2]) | mortality at 2500 ppm (Aedes aegypti) | mortality at 2500 ppm (Heliothis virescens; [1]) | mortality at 300 ppm (Spodoptera eridania)

CON=C(C)c1nccnc1C(C)N(CC1CC1)C(=O)c1cc(C(F)(F)F)cc(C2(C#N)CC2)c1 (stereo not shown) [I-9, 3-(1-cyanocyclopropyl)-N-(cyclopropylmethyl)-N-[1-[3-(N-methoxy-C-methyl-carbonimidoyl)pyrazin-2-yl]ethyl]-5-(trifluoromethyl)benzamide]
≥ 75%: mortality at 2500 ppm (Myzus persicae; [2]) | mortality at 2500 ppm (Aedes aegypti) | mortality at 300 ppm (Spodoptera eridania)

CON=C(C)c1nccnc1C(C)N(CC1CC1)C(=O)c1cc(Cl)cc(S(=O)(=O)c2ccc(F)cc2)c1 (stereo not shown) [I-17, 3-chloro-N-(cyclopropylmethyl)-5-(4-fluorophenyl)sulfonyl-N-[1-[3-(N-methoxy-C-methyl-carbonimidoyl)pyrazin-2-yl]ethyl]benzamide]
≥ 75%: mortality at 2500 ppm (Anthonomus grandis; [1]) | mortality at 2500 ppm (Aedes aegypti) | mortality at 300 ppm (Spodoptera eridania)

CCN(C)C(=NO)c1nccnc1C(C)NC(=O)c1cc(C(F)(F)F)cc(C(F)(F)F)c1 (stereo not shown) [I-170, N-[1-[3-(N-ethyl-N′-hydroxy-N-methyl-carbamimidoyl)pyrazin-2-yl]ethyl]-3,5-bis(trifluoromethyl)benzamide]
≥ 75%: mortality at 2500 ppm (Anthonomus grandis) | mortality at 2500 ppm (Myzus persicae) | mortality at 2500 ppm (Aedes aegypti) | mortality at 2500 ppm (Heliothis virescens)

From patent publication US20250107528A1, “PYRAZINE COMPOUNDS FOR THE CONTROL OF INVERTEBRATE PESTS” (BASF SE, priority 2021, published 2025)
